Results on two molecules are retold here after paper PMC6773697, “Antileukemic activity of novel adenosine derivatives” (Scientific Reports, 2019).

Structures are written as SMILES.

Series [1] concerns THP-1 cells. The series can be described thus: XTT cytotoxicity assay, THP-1. The class given is cell-based, human. The following applies: for IC50: Homo sapiens, THP-1, XTT, 48 h incubation, none in the picture; for sensitivity of cells to the compound: THP-1, XTT. As for the experimental part: (§1) The cytotoxic activity test with XTT (sodium 3′-[1-(phenylaminocarbonyl)- 3,4-tetrazolium]-bis (4-methoxy-6-nitro) benzene sulfonic acid hydrate) is a colorimetric method for determining the parameters associated with cell viability. The cytotoxicity in HL-60, THP-1, MOLT-4, and HMEC-1 cells was measured by the XTT assay. XTT is reduced to formazan by the mitochondrial respiratory chain oxidoreductase, which is active only in living cells. The formed crystals of formazan are dissolved directly in the medium. The amount of product is proportional to the number of live cells.
(§2) The IC50 parameter was determined by dividing the mean absorbance values of the drug-treated samples by those of control cells and defined as the drug concentration causing a 50% reduction of cell viability relative to the control. It was calculated using the “Ed50v10(1)” computer application. Cells were plated in 96-well plates at a density of 15 × 10^3 cells in 100 μL culture medium. Drugs were then added at a concentration range of 10 nM–10,000 nM to obtain a final volume of the mixture of 150 μL. Some cells were preincubated with an ATR kinase inhibitor (VE-821) for 1 h at 37 °C before adding the tested compounds. In this case drugs were added at a concentration range of 10 nM–300 nM. For the XTT assay, after 48 h of incubation, the plates were centrifuged at 1,500 rpm for 10 min at 4 °C, the culture medium was removed, and the cells were suspended in 100 mm^3 of HBSS (Hank’s Buffered Salt Solution) containing 140 mM NaCl, 5 mM KCl, 0.8 mM MgCl2, 1.8 mM CaCl2, 1 mM Na2HPO4, 10 mM HEPES (N- (2-hydroxyethyl) -piperazine-N′- (2-ethanesulfonic acid), and 1% glucose at pH 7.4. Then, 50 μL of XTT solution (in PBS) was added to a final concentration of […]. In addition, PMS (phenazine methosulphate) - methyl dibenzo-N-methylpyrazine sulphate (0.383 mg/cm^3) was used, which was combined with XTT solution at a ratio of 1:50. After 4 h of incubation with XTT, absorbance was measured at a wavelength λ = 450 nm and reference wavelength λ = 690 nm with a microplate reader (BioTek, Winooski, VT, USA).
(Tetrazolium assays rely on reduction of a dye to a coloured formazan, in cell work by metabolically active cells.)

Another series deals with MOLT-4 cells. The series can be described thus: XTT cytotoxicity assay, MOLT-4. The following applies: for IC50: Homo sapiens, MOLT-4, XTT, 48 h incubation, none in the picture. The class given is cell-based, human. As for the experimental part:
as §1, §2

A further series has as its system HL-60 cells. Put plainly: XTT cytotoxicity assay, HL-60. The class given is cell-based. Particulars: Homo sapiens, 48 h incubation, none in the picture. The protocol:
as §1, §2

The test system of a further series is HMEC-1 cells. The series can be described thus: XTT cytotoxicity assay, HMEC-1 (normal dermal endothelium). Format: cell-based. Particulars: Homo sapiens, 48 h incubation, none in the picture. The protocol: as §1, §2
A further series relates to dCK in THP-1 cells. The series can be described thus: Deoxycytidine kinase activity, THP-1. Format: cell-based, human. Particulars: THP-1, 24 h incubation. As for the experimental part: (§3) Deoxycytidine kinase activity was measured in accordance with the manufacturer’s protocol. The cells, at final concentration were plated at 1 × 10^6 cells per 24-well plates and cultured with the tested compounds for 24 h. Some cells were preincubated with an ATR kinase inhibitor (VE-821) for 1 h at 37 °C before adding the tested compounds. After drug treatment, the cells were washed with PBS and resuspended in an ice-cold cytosol extraction buffer containing 1 mM phenylmethylsulfonyl fluoride (PMSF) and a protease inhibitor cocktail. The cell lysate was centrifuged at 10,000 × g for 30 min at 4 °C. The protein concentration was determined using the Bradford method. The supernatant (cytosolic fraction) was collected and stored at −80 °C. The clarified cytoplasm extracts, dCK standards, and blank control were added to the appropriate microtiter plate wells with a biotin-conjugated polyclonal antibody prepared specifically for dCK. Avidin conjugated to horseradish peroxidase (HRP) was added to each microplate well and incubated. Then, a TMB substrate solution was added to the plate. […] The enzyme-substrate reaction was terminated by addition of a sulfuric acid solution. The color change was measured spectrophotometrically at a wavelength of 450 nm using a microplate reader (BioTek).

For series [2], the system named is leukemic cells (HL-60, MOLT-4, THP-1). The series can be described thus: XTT cytotoxicity assay, leukemic cells overall. Particulars: XTT, leukemic cell lines. The class given is cell-based, human. The protocol: as §1, §2
Series [3] relates to THP-1 cells. Put plainly: Comet assay with proteinase K post-treatment (DNA-protein cross-links), THP-1. The class given is cell-based, human. As for the experimental part: Single cell gel electrophoresis (comet assay) was used to detect alkali labile sites, single and double DNA strand breaks, and cross-links induced by genotoxic agents. After electrophoresis and gel staining with 4,6-diamidino-2-phenylindole (DAPI), the released DNA was visible under a fluorescence microscope as a characteristic comet tail. The cells were plated on 24-well plates (20,000 cells/mL) and treated with CLA, CLA-FMOR, CLA-FPIP, or CLA-FPIR at the indicated concentrations for 2, 24, and 48 h at 37 °C. Some cells were preincubated with an ATR kinase inhibitor (VE-821) for 1 h at 37 °C before adding the tested compounds. Next, cells were collected into Eppendorf tubes and rinsed with PBS. Then, cells were suspended in 0.75% low melting point (LMP) agarose dissolved in PBS (pH 7.4) and placed on microscope slides precoated with 0.5% normal melting point (NMP) agarose. Subsequently, the slides were treated with a cooled lysis buffer (2.5 M NaCl, 100 mM EDTA, 10 mM Tris, 1% Triton X-100, pH 9.0) for 1–24 h at 4 °C. Then, slides were placed in developing buffer (300 mM NaOH, 1 mM EDTA) for 20 min. Electrophoresis was performed in […] (30 mM NaOH, 1 mM EDTA) at 29 V and 30 mA for 20 min. The samples were stained with DAPI ([…]). The slides were stored in a wet chamber at 4 °C and analyzed under a fluorescence microscope. Fifty randomly selected cells from each slide were measured using image analysis (Nikon, Japan) attached to a COHU 4910 video camera, which was equipped with a UV-1 filter block consisting of an excitation filter (359 nm) and a barrier filter (461 nm) connected to the image analysis system Lucia-Comet v. 4.51 (Czech Republic)[41]. In the samples preincubated with VE-821, the level of DNA damage associated with the ATR kinase was determined.
Because cross-links can be undetectable in the alkaline comet assay, a variant of this method including post-treatment with proteinase K (Cat no: P2308) was used. […]

The test system of another series is dCK in HL-60 cells. Put plainly: Deoxycytidine kinase activity, HL-60. The class given is cell-based, human. Particulars: HL-60, 24 h incubation. As for the experimental part: as §3

For orientation: IC50 means the point on the concentration scale where inhibition reaches its midpoint. Lower therefore signals greater potency in that assay. For `OC[C@H]1O[C@@H](n2cnc3c(N=CN4CCCC4)nc(Cl)nc32)C[C@@H]1O` [CLA-FPIR, [6-deamino-6-(N′, N′-l′, 4′-tetramethyleneformamidino)] cladribine], the half-inhibitory concentration (IC50) with THP-1 cells [1] is 36 nM; in the series on MOLT-4 cells it was 127 nM; in the series with HL-60 cells it was 135 nM; in the series on HMEC-1 cells it was 231 nM. In the series on THP-1 cells [1], the “sensitivity of cells to the compound” value is given as “highest sensitivity”. The dCK activity entry in the series with dCK in THP-1 cells was “highest dCK activity”. For the same molecule, the “cytotoxicity (in words)” value in series [2] is given as “high cytotoxic activity”. For the same molecule, the “DNA damage in the tail after proteinase K” value with THP-1 cells [3] (THP-1, 24 h) is on record as “increased”.

For the molecule `OC[C@H]1O[C@@H](n2cnc3c(N=CN4CCOCC4)nc(Cl)nc32)C[C@@H]1O` [CLA-FMOR, [6-deamino-6-(N′, N′-3′-oxa-1′, 5′-pentamethyleneformamidine)] cladribine], the half-maximal inhibitory concentration (IC50) came out at 41 nM in the series with THP-1 cells [1], 73 nM in the series with MOLT-4 cells, 122 nM with HL-60 cells and 287 nM in the series on HMEC-1 cells. The “sensitivity of cells to the compound” value with THP-1 cells [1] is on record as “highest sensitivity”. Further, the “cytotoxic potency compared with CLA” value in the series with MOLT-4 cells (MOLT-4, XTT) was “more potent than CLA”. The dCK activity entry in the series with dCK in THP-1 cells and with dCK in HL-60 cells was “highest dCK activity” each time. For the same molecule, the “cytotoxicity (in words)” value in series [2] is “high cytotoxic activity”. Further, in the series on THP-1 cells [3] (THP-1, 2–48 h), the “DNA damage in the tail after proteinase K” value was “increased”.
